Assay results from the NIST ThermoML archive (doi:10.1021/acs.jced.8b01196).

Legend:
[1] = Liquid; for mass density: 101.33 kPa, Vibrating tube method; for vapor or sublimation pressure: Ebulliometric method (Recirculating still)
[2] = Boiling temperature at pressure P; conditions: Liquid, Ebulliometric method (Recirculating still)
[3] = refractive index (Na D-line) (dimensionless); conditions: 101.33 kPa, Liquid, Standard Abbe refractometry

CC(C)=O [acetone]
Conditions | Boiling temperature at pressure P [°C] | mass density [kg/m3] | refractive index | vapor or sublimation pressure [kPa]
[1], 298.15 K | – | 785 | – | –
[1], 328.89 K | – | – | – | 100
[1], 341.5 K | – | – | – | 150
[1], 350.57 K | – | – | – | 200
[2], 40.32 kPa | 31.47 | – | – | –
[2], 50.34 kPa | 37.0 | – | – | –
[2], 60.36 kPa | 41.64 | – | – | –
[2], 70.3 kPa | 45.74 | – | – | –
[2], 80.32 kPa | 49.40 | – | – | –
[2], 90.34 kPa | 52.70 | – | – | –
[2], 100.38 kPa | 55.74 | – | – | –
[2], 120.34 kPa | 61.20 | – | – | –
[2], 140.53 kPa | 65.91 | – | – | –
[2], 150.68 kPa | 68.4 | – | – | –
[2], 160.33 kPa | 70.12 | – | – | –
[2], 180.53 kPa | 73.92 | – | – | –
[2], 200.55 kPa | 77.42 | – | – | –
[2], 220.29 kPa | 80.67 | – | – | –
[3], 293.15 K | – | – | 1.359 | –

CC=O [ethanal]
Conditions | Boiling temperature at pressure P [°C] | refractive index | vapor or sublimation pressure [kPa]
[1], 293.52 K | – | – | 100
[1], 304.31 K | – | – | 150
[1], 312.98 K | – | – | 200
[2], 100.68 kPa | 20.37 | – | –
[2], 105.38 kPa | 21.58 | – | –
[2], 115.48 kPa | 23.93 | – | –
[2], 135.54 kPa | 28.19 | – | –
[2], 150.37 kPa | 31.16 | – | –
[2], 165.44 kPa | 33.89 | – | –
[2], 180.92 kPa | 36.44 | – | –
[2], 195.74 kPa | 39 | – | –
[2], 200.79 kPa | 39.83 | – | –
[2], 210.95 kPa | 41.10 | – | –
[2], 225.32 kPa | 43.23 | – | –
[2], 240.4 kPa | 45.2 | – | –
[3], 293.15 K | – | 1.337 | –

CCC(=O)C(C)=O [2,3-pentanedione]
Conditions | Boiling temperature at pressure P [°C] | mass density [kg/m3] | refractive index | vapor or sublimation pressure [kPa]
[1], 292.15 K | – | 982 | – | –
[1], 382.52 K | – | – | – | 100
[1], 395.74 K | – | – | – | 150
[1], 405.62 K | – | – | – | 200
[2], 15.33 kPa | 58.52 | – | – | –
[2], 30.35 kPa | 74.90 | – | – | –
[2], 45.32 kPa | 85.6 | – | – | –
[2], 50.34 kPa | 88.2 | – | – | –
[2], 60.35 kPa | 93.66 | – | – | –
[2], 65.35 kPa | 96.10 | – | – | –
[2], 75.35 kPa | 100.40 | – | – | –
[2], 90.29 kPa | 106.11 | – | – | –
[2], 100.75 kPa | 109.37 | – | – | –
[2], 105.45 kPa | 111.8 | – | – | –
[2], 120.51 kPa | 115.89 | – | – | –
[2], 135.32 kPa | 118.22 | – | – | –
[2], 150.5 kPa | 122.59 | – | – | –
[2], 165.5 kPa | 125.8 | – | – | –
[2], 180.57 kPa | 128.56 | – | – | –
[2], 195.59 kPa | 129.97 | – | – | –
[2], 200.68 kPa | 132.47 | – | – | –
[3], 292.15 K | – | – | 1.412 | –
